Marks after values point to notes of the source that are not given here.
Legend:
Type in all cases: in vivo
Conditions in all cases: 100 = 100% disease control
[1] = test system: Puccinia recondita f. sp. tritici; experiment: Test I: wheat leaf rust on wheat seedlings, sprayed the day before inoculation, visual disease rating
Outline: (§1)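 Acetone solution (3% of final volume) of each compound is suspended in 50/50 acetone/water with 250 ppm Trem® 014. Plants are sprayed to run-off at 200 ppm, equivalent to 500 g/ha, or at 40 ppm for starred values.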

[2] = test system: Erysiphe graminis f. sp. tritici; experiment: Test J: wheat powdery mildew on wheat seedlings, sprayed the day before inoculation, visual disease rating
Outline: as §1

[3] = test system: Puccinia recondita f. sp. tritici; experiment: Test H: wheat leaf rust, test suspension sprayed after inoculation of wheat seedlings, visual disease rating
Outline: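 Wheat seedlings inoculated with P. recondita spores, held 24 h saturated at 20 °C, then 2 days in growth chamber at 20 °C; compound suspension (acetone/water with Trem 014) sprayed to run-off afterwards. Rated visually; 200 ppm (≈500 g/ha) unless marked *, which denotes 40 ppm.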

Septoria nodorum = experiment: Test F: wheat glume blotch on wheat seedlings, sprayed the day before inoculation, visual disease rating
Outline: as §1

Alternaria solani = experiment: Test D: tomato early blight, sprayed the day before inoculation, visual disease rating
Outline: as §1

Septoria tritici = experiment: Test G: wheat leaf blotch on wheat seedlings, sprayed the day before inoculation, visual disease rating
Outline: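 Visual disease ratings taken 19 days after transfer to a 20° C growth chamber, following 48 h in saturated atmosphere at 24° C. Seedlings had been sprayed to run-off one day before spore inoculation. Dose 200 ppm, or 40 ppm where starred.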

Botrytis cinerea = experiment: Test C: tomato Botrytis on tomato seedlings, sprayed the day before inoculation, visual disease rating
Outline: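 Disease ratings refer to tomato seedlings treated by run-off spraying with compound suspensions, mostly 200 ppm (500 g/ha equivalent) and in marked cases 40 ppm. Carrier: acetone/purified water 50/50 with 250 ppm polyhydric alcohol ester surfactant, after predissolving in acetone.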

[4] = 200 ppm, 0 = no control relative to controls
[5] = 40 ppm (marked *), 0 = no control

SMILES	Test I disease control rating [1, 4] [%]	Test J disease control rating [2, 4] [%]	Test H disease control rating [3, 4] [%]	Test F disease control rating (Septoria nodorum; [4]) [%]	Test D disease control rating (Alternaria solani; [4]) [%]	Test G disease control rating (Septoria tritici; [4]) [%]	Test C disease control rating (Botrytis cinerea; [4]) [%]	further results
COc1cc(F)c(-c2c(Cl)nc(C)n2-c2ccc(Cl)nc2)c(F)c1 [compound 739]	100	100	100	100	100	100	100	–
Cc1ncn(-c2ccc(Cl)c(F)c2)c1-c1ccccc1F [compound 318]	9	87	0	0	16	91	100	–
COc1cc(F)c(-n2nnc(Br)c2-c2ccc(Cl)cc2)c(F)c1 [compound 474]	36	95	0	0	57	90	99	–
COc1cc(F)c(-c2c(Cl)nc(Br)n2-c2cccc(Cl)c2)c(F)c1 [compound 483]	98	100	32	0	99	94	100	–
COc1cc(F)c(-c2c(Cl)nc(Br)n2-c2ccc(C)c(Cl)c2)c(F)c1 [compound 542]	–	–	–	–	–	–	–	Test I disease control rating ([1]; 40 ppm (marked *)): 98* %; Test J disease control rating ([2]; 40 ppm (marked *)): 89* %; Test H disease control rating ([3]; 40 ppm (marked *)): 0* %; Test F disease control rating (Septoria nodorum; 40 ppm (marked *)): 0* %; Test D disease control rating (Alternaria solani; 40 ppm (marked *)): 96* %; Test G disease control rating (Septoria tritici; 40 ppm (marked *)): 97* %; Test C disease control rating (Botrytis cinerea; 40 ppm (marked *)): 99* %
Fc1ccc(-n2cnc(Br)c2-c2c(F)ccc(F)c2F)cc1 [compound 332]	96	99	9	60	99	95	100	–
Fc1ccc(F)c(-c2c(Cl)nc(Cl)n2Cc2ccc(Cl)cc2)c1F [compound 285]	–	–	–	–	–	–	–	Test I disease control rating ([1]; 200 ppm, 0 = no control): 100%; Test J disease control rating ([2]; 200 ppm, 0 = no control): 100%; Test H disease control rating ([3]; 200 ppm, 0 = no control): 98%; Test F disease control rating (Septoria nodorum; 200 ppm, 0 = no control): 83%; Test D disease control rating (Alternaria solani; 200 ppm, 0 = no control): 85%; Test G disease control rating (Septoria tritici; 200 ppm, 0 = no control): 94%; Test C disease control rating (Botrytis cinerea; 200 ppm, 0 = no control): 99%
COc1cc(F)c(-c2c(Cl)nc(Cl)n2C(C)c2ncc(Cl)cc2Cl)c(F)c1 (centres unmarked) [compound 727]	74	21	15	0	0	89	98	–
CN(C)c1ncn(Cc2ccc(Cl)cc2)c1-c1c(F)ccc(F)c1F [compound 267]	–	–	–	–	–	–	–	Test I disease control rating ([1]; 200 ppm, 0 = no control): 86%; Test J disease control rating ([2]; 200 ppm, 0 = no control): 97%; Test H disease control rating ([3]; 200 ppm, 0 = no control): 9%; Test F disease control rating (Septoria nodorum; 200 ppm, 0 = no control): 0%; Test D disease control rating (Alternaria solani; 200 ppm, 0 = no control): 0%; Test G disease control rating (Septoria tritici; 200 ppm, 0 = no control): 91%; Test C disease control rating (Botrytis cinerea; 200 ppm, 0 = no control): 98%
COc1cc(F)c(-c2c(Cl)ncn2-c2ccc(F)c(F)c2)c(F)c1 [compound 498]	100	100	0	95	100	95	99	–
COc1cc(OC)cc(-n2c(Cc3c(F)cc(F)cc3F)cnc2C)c1 [compound 533]	92	82	15	0	0	49	0	–
Fc1ccc(F)c(-c2c(Cl)ncn2Cc2ccc(Cl)cc2)c1F [compound 266]	–	–	–	–	–	–	–	Test I disease control rating ([1]; 200 ppm, 0 = no control): 99%; Test J disease control rating ([2]; 200 ppm, 0 = no control): 99%; Test H disease control rating ([3]; 200 ppm, 0 = no control): 98%; Test F disease control rating (Septoria nodorum; 200 ppm, 0 = no control): 97%; Test D disease control rating (Alternaria solani; 200 ppm, 0 = no control): 100%; Test G disease control rating (Septoria tritici; 200 ppm, 0 = no control): 94%; Test C disease control rating (Botrytis cinerea; 200 ppm, 0 = no control): 100%
COc1cc(F)c(-c2c(Cl)ncn2Cc2ccc(Cl)nc2)c(F)c1 [compound 669]	98	0	73	99	100	99	100	–
COc1ccc(F)c(-c2c(Cl)nc(Cl)n2-c2ccc(C)c(F)c2)c1F [compound 561]	100	100	9	97	100	100	99	–
Fc1cc(-n2c(Cl)nc(Br)c2-c2c(F)ccc(F)c2F)ccc1Cl [compound 350]	99	100	0	82	100	91	99	–
Cc1cccc(-c2c(C)nc(Cl)n2-c2ccc(Cl)c(F)c2)n1 [compound 378]	74	75	0	0	0	93	100	–
Cc1nc(Br)c(-c2c(F)cccc2F)n1-c1ccc2ccccc2c1 [compound 336]	–	–	–	–	–	–	–	Test I disease control rating [1, 5]: 74* %; Test J disease control rating [2, 5]: 87* %; Test H disease control rating [3, 5]: 0* %; Test F disease control rating (Septoria nodorum; [5]): 99* %; Test D disease control rating (Alternaria solani; [5]): 88* %; Test G disease control rating (Septoria tritici; [5]): 96* %; Test C disease control rating (Botrytis cinerea; [5]): 99* %
Cc1nc(Cl)c(Cc2c(F)cc(F)cc2F)n1-c1cc(Cl)cc(Cl)c1 [compound 540]	0	21	0	0	0	3	15	–
COc1cc(F)c(-n2c(Cl)nc(C)c2-c2ccc(C)cc2)c(F)c1 [compound 564]	–	–	–	–	–	–	–	Test I disease control rating ([1]; 40 ppm (marked *)): 100* %; Test J disease control rating ([2]; 40 ppm (marked *)): 100* %; Test H disease control rating ([3]; 40 ppm (marked *)): 66* %; Test F disease control rating (Septoria nodorum; 40 ppm (marked *)): 64* %; Test D disease control rating (Alternaria solani; 40 ppm (marked *)): 100* %; Test G disease control rating (Septoria tritici; 40 ppm (marked *)): 99* %; Test C disease control rating (Botrytis cinerea; 40 ppm (marked *)): 99* %
COc1ccc(F)c(-c2c(Cl)ncn2-c2ccc(C)c(F)c2)c1F [compound 520]	99	100	0	0	100	97	100	–
